Tests used:
A1 = biological target: T1, A1 (Homo sapiens, UniProt Q16548); details: cited from earlier work
T1 sequence (Q16548 1-175): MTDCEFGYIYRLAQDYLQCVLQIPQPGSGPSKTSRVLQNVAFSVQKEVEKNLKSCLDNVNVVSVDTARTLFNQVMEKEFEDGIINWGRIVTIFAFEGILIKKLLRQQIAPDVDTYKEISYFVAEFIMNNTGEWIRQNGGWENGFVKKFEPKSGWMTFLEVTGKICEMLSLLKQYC

Mcl-1 = Mcl-1 (Homo sapiens, UniProt Q07820); details: cited from earlier work
HeLa cells = assay: Flow cytometry, subG1-phase cells (apoptosis); type: cell-based, human; details: ABT-737 (3 μM) in Luc siRNA-treated HeLa cells
Method: FIG. 13: Flow cytometry of HeLa cancer cell transfected with luc, mcl-1, USP46v1, USP46v4 or USP46 pool siRNA. Cell cycle was determined 72 h after siRNA transfection and 18 h after ABT-737 treatment (3 μM).
FIG. 14: ABT-737-induced subG1 transition in HeLa cells determined 72 h after siRNA transfection and 24 h after ABT-737 treatment. The percentage of cells in the subG1 (<2N) are means+/−SD of duplicate values (A). Mcl-1 endogenous level was also determined in the presence of siRNA targeting either luciferase, Mcl-1 or USP46. Anti-Stat3 antibody was used as loading control (B).
All cell lines used were maintained in their respective medium. All culture media were supplemented with 100 units/ml penicillin and 0.1 mg/ml streptomycin, and cell lines were incubated at 37° C. in a humidified atmosphere containing 5% CO2. For siRNA transfection, siRNA (40 pmol, 72 nM final) were complexed with 2 μl of Oligofectamine (Invitrogen) in Opti-MEM (Invitrogen) and added to 24-well plates prior to cell seeding. In all conditions, Opti-MEM was replaced with appropriate medium 5 hours after transfection. […]
To confirm the effect of USP46 siRNA on the sensitization of cells to ABT-737-induced apoptosis in HeLa cells, the number of subG1-phase cells is quantified which reflect mainly apoptosis. […]

Mcl-1 in HCT116 cells = assay: USP siRNA screening on Mcl-1 half-life with cycloheximide, Western blot; type: cell-based, human; details: confirmation experiment
Method: FIG. 1 (FIGS. 1.1, 1.2, 1.3): Schematic representation of Mcl-1 modulation following USP silencing at t=0, 30 min or 1 h of cycloheximide treatment in HCT116 cells. Mcl-1 increase and decrease are respectively presented in blue and green and siRNA toxicity is presented in grey. Absence of color corresponds to absence of any effect. Selected USP for confirmation experiments are highlighted in green (USP5, USP13, USP19, USP21, USP22, USP26, USP28, USP38, USP42 and USP46). SiRNA designed to target pairs of USP are indicated on the right of the table.
For the screening, the indicated amounts of siRNA (40 pmol, 72 nM final) were complexed with 2 μl of Oligofectamine (Invitrogen) in Opti-MEM (Invitrogen) and added to 24-well plates prior to cell seeding. 150 000 HCT116 cells were next plated. Opti-MEM was replaced with appropriate medium 5 hours after transfection. After 72 h of transfection and before harvesting, cells were treated or not with cycloheximide (30 μg/ml) for 30 min or 1 hour or treated with MG132 (30 μM) for 90 min.
Cells were washed once in chilled PBS and harvested by trypsination. Floating and trypsinized cells were pooled and collected by centrifugation. […] Proteins were quantitated using bicinchoninic acid (Sigma-Aldrich) according to manufacturer's instructions. […] Signal was detected using ECL reagent (Amersham) following manufacturer's instructions. […]

Sequence of Mcl-1 (Q07820 whole entry, species assumed): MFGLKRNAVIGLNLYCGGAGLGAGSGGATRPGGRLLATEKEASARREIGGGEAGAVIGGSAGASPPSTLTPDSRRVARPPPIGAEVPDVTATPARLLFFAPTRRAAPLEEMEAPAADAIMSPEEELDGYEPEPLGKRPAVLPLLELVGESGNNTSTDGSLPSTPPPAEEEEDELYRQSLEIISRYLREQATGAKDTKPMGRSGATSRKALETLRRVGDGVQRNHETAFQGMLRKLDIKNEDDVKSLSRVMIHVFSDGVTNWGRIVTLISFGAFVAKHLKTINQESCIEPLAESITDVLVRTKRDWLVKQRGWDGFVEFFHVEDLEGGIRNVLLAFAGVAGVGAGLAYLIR

Structure (SMILES): CN(C)CC[C@H](CSc1ccccc1)Nc1ccc(S(=O)(=O)NC(=O)c2ccc(N3CCN(Cc4ccccc4-c4ccc(Cl)cc4)CC3)cc2)cc1[N+](=O)[O-] [ABT-737]
- affinity for A1 (A1): low affinity
- affinity for Mcl-1 (Mcl-1): low affinity
- subG1 cells (HeLa cells): 35%±6.6%

Structure (SMILES): C[C@@H]1C[C@@H]([C@H](O)CC2CC(=O)NC(=O)C2)C(=O)[C@@H](C)C1 [cycloheximide]
- endogenous Mcl-1 level (Mcl-1 in HCT116 cells): significant decrease

— patent publication US20110237644A1, “UBIQUITIN SPECIFIC PROTEASES RESPONSIBLE FOR MCL-1 STABILITY AND USES THEREOF” (Les Laboratoires Servier, priority 2008, published 2011)
